Source: patent US8202877B2, “Aminopyrimidinamides as pesticides” (Bayer CropScience AG, priority 2009, dated 2012)

System: Spodoptera litura third instar larvae
Experiment: not given
Conditions: active compound concentration of 100 ppm; sweet potato leaves immersed; after 7 days

Row | SMILES | insecticidal activity [%]
1 | CCc1ncccc1C(=O)Nc1c(NC2CC2)ncnc1-c1ccc(Cl)cc1 [1-177, N-[4-(4-Chlorophenyl)-6-cyclopropylaminopyrimidin-5-yl]-2-ethylnicotinamide] | 100
2 | CCc1ncccc1C(=O)Nc1c(NC2CC2)ncnc1-c1ccc(C(F)(C(F)(F)F)C(F)(F)F)cc1 [1-232] | 100
3 | O=C(Nc1c(NC2CC2)ncnc1-c1ccccc1)c1cccnc1C1CC1 [1-234] | 100
4 | O=C(Nc1c(NC2CC2)ncnc1-c1ccc(F)cc1)c1cccnc1C1CC1 [1-235] | 100
5 | O=C(Nc1c(NC2CC2)ncnc1-c1ccc(Cl)cc1)c1cccnc1C1CC1 [1-236] | 100
6 | CCCc1ncccc1C(=O)Nc1c(NC2CC2)ncnc1-c1ccccc1 [1-237] | 100
7 | CCCc1ncccc1C(=O)Nc1c(NC2CC2)ncnc1-c1ccc(F)cc1 [1-238] | 100
8 | CCCc1ncccc1C(=O)Nc1c(NC2CC2)ncnc1-c1ccc(Cl)cc1 [1-239] | 100
9 | O=C(Nc1c(NC2CC2)ncnc1-c1ccc(F)cc1F)c1cccnc1C1CC1 [1-240] | 100
10 | O=C(Nc1c(NC2CC2)ncnc1-c1ccc(Cl)cc1)c1cccnc1C(F)(F)C(F)(F)F [1-241] | 100
11 | N#Cc1ccc(-c2ncnc(NC3CC3)c2NC(=O)c2cccnc2C2CC2)cc1 [1-242] | 100
12 | O=C(Nc1c(NC2CC2)ncnc1-c1ccc(OC(F)(F)F)cc1)c1cccnc1C1CC1 [1-243] | 100
13 | CCCc1ncccc1C(=O)Nc1c(NC2CC2)ncnc1-c1ccc(Cl)cc1Cl [1-244] | 100
14 | CCCc1ncccc1C(=O)Nc1c(NC2CC2)ncnc1-c1ccc(F)cc1F [1-245] | 100
15 | CCCc1ncccc1C(=O)Nc1c(NC2CC2)ncnc1-c1ccc(C#N)cc1 [1-246] | 100
16 | CCc1ncccc1C(=O)Nc1c(NC2CC2)ncnc1-c1ccc(Cn2nc(C(F)(F)C(F)(F)F)cc2C(F)(F)F)cc1 [1-247] | 100
17 | O=C(Nc1c(NC2CC2)ncnc1-c1ccc(Cn2nc(C(F)(F)F)cc2C(F)(F)F)cc1)c1cccnc1C1CC1 [1-252] | 100
18 | O=C(Nc1c(NC2CC2)ncnc1-c1ccc(Cn2nc(C(F)(F)C(F)(F)F)cc2C(F)(F)F)cc1)c1cccnc1C1CC1 [1-253] | 100
19 | O=C(Nc1c(NC2CC2)ncnc1-c1ccc(F)cc1F)c1cccnc1CC(F)(F)F [1-254] | 100
20 | CCc1ccccc1C(=O)Nc1c(NC2CC2)ncnc1-c1ccc(OC(F)(F)F)cc1 [1-257] | 100
21 | CCc1ncccc1C(=O)Nc1c(NC2CC2)ncnc1-c1ccc(Cn2nc(C(F)(F)F)nc2C(F)(F)F)cc1 [1-258] | 100

Row | SMILES | insecticidal activity [%]
22 | O=C(Nc1c(NC2CC2)ncnc1-c1ccc(Cn2nc(C(F)(F)F)nc2C(F)(F)F)cc1)c1cccnc1C1CC1 [1-259] | 100
23 | CCCc1ncccc1C(=O)Nc1c(NC2CC2)ncnc1-c1ccc(Cn2nc(C(F)(F)F)nc2C(F)(F)F)cc1 [1-264] | 100
24 | CCc1ccccc1C(=O)Nc1c(NC2CC2)ncnc1-c1ccc(Cn2nc(C(F)(F)F)nc2C(F)(F)F)cc1 [1-265] | 100
25 | CCc1ncccc1C(=O)Nc1c(NC2CC2)ncnc1-c1ccc(Cn2ccc(C(F)(F)C(F)(F)F)n2)cc1 [1-266] | 100
26 | CCc1ncccc1C(=O)Nc1c(NC2CC2)ncnc1-c1ccc(Cn2ccc(C(F)(F)C(F)(F)C(F)(F)F)n2)cc1 [1-267] | 100
27 | CCc1ncccc1C(=O)Nc1c(NC2CC2)ncnc1-c1ccc(Cn2nc(C(F)(F)F)cc2C(F)(F)F)cc1 [1-268] | 100
28 | CCc1ncccc1C(=O)Nc1c(NC2CC2)ncnc1-c1ccc(Cn2nc(C(F)(F)C(F)(F)F)cc2C(F)(F)C(F)(F)F)cc1 [1-269] | 100
29 | CCc1ccccc1C(=O)Nc1c(NC2CC2)ncnc1-c1ccc(Cn2cnc(C(F)(F)F)n2)cc1 [1-286] | 100
30 | CCc1ncccc1C(=O)Nc1c(NC2CC2)ncnc1-c1ccc(Oc2ncc(C(F)(F)F)cc2Cl)cc1 [1-310] | 100
31 | CCc1ncccc1C(=O)Nc1c(NC2CC2)ncnc1-c1ccc(Oc2ncccc2C(F)(F)F)cc1 [1-311] | 100
32 | CCc1ncccc1C(=O)Nc1c(NC2CC2)ncnc1-c1ccc(Oc2cccc(C(F)(F)F)n2)cc1 [1-312] | 100
33 | CCc1ncccc1C(=O)Nc1c(NC2CC2)nc(C(F)(F)F)nc1-c1ccc(F)cc1 [1-313] | 100
34 | CCc1ncccc1C(=O)Nc1c(NC2CC2)nc(C(F)(F)F)nc1-c1ccc(F)cc1F [1-314] | 100
35 | CCc1ncccc1C(=O)Nc1c(NC2CC2)ncnc1-c1ccc(Oc2nc(C(F)(F)F)cc(C(F)(F)C(F)(F)F)n2)cc1 [1-317] | 100
36 | CCc1ncccc1C(=O)Nc1c(NC2CC2)ncnc1-c1ccc(Cc2nc(C(F)(F)C(F)(F)C(F)(F)F)n(C)n2)cc1 [1-318] | 100
37 | CCc1ncccc1C(=O)Nc1c(NC2CC2)ncnc1-c1ccc(Cc2n[nH]c(C(F)(F)C(F)(F)C(F)(F)F)n2)cc1 [1-319] | 100
38 | O=C(Nc1c(NC2CC2)nc(C(F)(F)F)nc1-c1ccc(F)cc1)c1cccnc1CC(F)(F)F [1-324] | 100
39 | O=C(Nc1c(NC2CC2)nc(Cl)nc1-c1ccc(F)cc1)c1cccnc1CC(F)(F)F [1-325] | 100
40 | CCc1ncccc1C(=O)Nc1c(NC2CC2)nc(Cl)nc1-c1ccc(F)cc1 [1-326] | 100
41 | CCc1ncccc1C(=O)Nc1c(Cl)ncnc1Nc1ccc(F)cc1 [5-2] | 100

System: not listed separately
Experiment: logP (HCOOH), physicochemical characterization
Conditions: not given

Row | SMILES | logP (HCOOH)
42 | Cc1ncccc1C(=O)Nc1c(NC2CC2)ncnc1-c1ccc(F)cc1 [1-1] | 0.71
43 | CCc1ncccc1C(=O)Nc1c(NC2CC2)ncnc1-c1ccc(SC(F)(F)F)cc1 [1-114] | 1.4
44 | O=C(Nc1c(NC2CC2)ncnc1-c1ccccc1)c1cccnc1 [1-128] | 0.63
45 | CCc1ncccc1C(=O)Nc1c(NC2CC2)ncnc1-c1ccc(C#N)cc1 [1-133] | 1.10
46 | CCc1ncccc1C(=O)Nc1c(NC2CC2)ncnc1-c1ccc(F)cc1Cl [1-139] | 0.79
47 | CCOc1ncccc1C(=O)Nc1c(NC2CC2)ncnc1-c1ccc(C#N)cc1 [1-160] | 1.80
48 | CCc1ncccc1C(=O)Nc1c(NC2CC2)ncnc1-c1ccc(F)cc1C [1-180] | 1.10
49 | CCc1ncccc1C(=O)Nc1c(NC2CC2)ncnc1-c1ccccc1C [1-182] | 0.94
50 | CCc1ncccc1C(=O)Nc1c(NC2CC2)ncnc1-c1ccc(Cl)cc1C [1-188] | 1.40
51 | O=C(Nc1c(NC2CC2)ncnc1-c1ccc(Cl)cc1)c1c(F)cccc1Cl [1-263] | 2.20
52 | CCCc1ncccc1C(=O)Nc1c(NC2CC2)ncnc1-c1ccc(Cn2nc(C(F)(F)F)nc2C(F)(F)F)cc1 [1-264] | 1.9
53 | CCc1ncccc1C(=O)Nc1c(NC2CC2)nc(C)nc1-c1ccccc1 [1-275] | 0.76
54 | CCc1ncccc1C(=O)Nc1c(NC2CC2)nc(C)nc1-c1ccc(F)cc1 [1-276] | 0.88
55 | CCc1ncccc1C(=O)Nc1c(NC2CC2)nc(C)nc1-c1ccc(F)cc1F [1-278] | 1
56 | CCc1ncccc1C(=O)Nc1c(Br)ncnc1NC1CC1 [3-3] | 0.84
57 | O=C(Nc1c(NC2CC2)ncnc1-c1ccc(F)cc1)c1ccnn1-c1ccc(F)cc1 [9-1] | 1.70
58 | O=C(Nc1c(NC2CC2)ncnc1-c1ccc(F)cc1)c1ccnn1-c1ccc(Cl)cc1 [9-2] | 2.02
59 | O=C(Nc1c(NC2CC2)ncnc1-c1ccc(F)cc1)c1ccnn1-c1ccccc1Cl [9-3] | 1.76
60 | O=C(Nc1c(NC2CC2)ncnc1-c1ccc(Cl)cc1)c1ccnn1-c1ccccc1Cl [9-4] | 2.05
